Test results: ChEMBL document CHEMBL4420076, “Amylin and calcitonin receptor agonist” (2017)
Numbered stars: 1 amine (or outer) side, 2 acyl side, 3 side chain; on linkers, the order of the positions; unused ones are H or OH. Peptide text beside a SMILES is read from it. * marks the point of attachment. C20 diacid = O=C(O)CCCCCCCCCCCCCCCCCCC(=O)*; γGlu = O=C(O)[C@H](CCC(=O)[*:2])N[*:1]

What was measured:
[1] = test system: Rattus norvegicus; test: Reduction in food intake in Sprague-Dawley rat at 3 nmol/kg measured 0 to 24 hrs post dose relative to control; assay type: functional; parameters: scale not given: the % may be the effect or the level left
[2] = test system: Rattus norvegicus; test: Reduction in food intake in Sprague-Dawley rat at 3 nmol/kg measured 24 to 48 hrs post dose relative to control; assay type: functional; parameters: scale not given: the % may be the effect or the level left
[3] = target: T1, Amylin receptor AMY3; CALCR/RAMP3 (Homo sapiens, UniProt O60896+P30988); test: Agonist activity at human amylin receptor expressed in BHK570 cells co-expressing RAMP3 assessed as increase in intracellular cAMP concentration incubated for 3 hrs in absence of albumin by CRE luciferase reporter gene assay; assay type: functional, cell-based
T1 sequence (P30988 whole entry): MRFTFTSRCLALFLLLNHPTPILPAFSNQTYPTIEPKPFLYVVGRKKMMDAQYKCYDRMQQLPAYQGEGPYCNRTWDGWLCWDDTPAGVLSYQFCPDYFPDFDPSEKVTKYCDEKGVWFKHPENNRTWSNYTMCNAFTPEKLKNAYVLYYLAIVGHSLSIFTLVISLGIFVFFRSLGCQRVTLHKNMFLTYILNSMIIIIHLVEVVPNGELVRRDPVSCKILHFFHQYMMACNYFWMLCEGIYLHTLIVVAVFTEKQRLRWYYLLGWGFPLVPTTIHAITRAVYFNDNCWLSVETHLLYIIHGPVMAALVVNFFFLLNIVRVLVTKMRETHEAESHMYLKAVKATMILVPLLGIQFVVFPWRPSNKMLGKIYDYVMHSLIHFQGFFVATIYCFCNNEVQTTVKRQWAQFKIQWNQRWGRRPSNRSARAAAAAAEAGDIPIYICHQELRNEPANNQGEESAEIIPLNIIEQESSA
T1 sequence (O60896 whole entry): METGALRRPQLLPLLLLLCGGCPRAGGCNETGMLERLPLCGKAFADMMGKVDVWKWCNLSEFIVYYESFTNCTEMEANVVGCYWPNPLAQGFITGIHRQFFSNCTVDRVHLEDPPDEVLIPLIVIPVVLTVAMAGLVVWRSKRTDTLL

[4] = target: T2, Calcitonin receptor (Homo sapiens, UniProt P30988); test: Agonist activity at human calcitonin receptor expressed in BHK570 cells assessed as increase in intracellular cAMP concentration incubated for 3 hrs in absence of albumin by CRE luciferase reporter gene assay; assay type: functional, cell-based
T2 sequence (P30988 whole entry): T1 sequence (P30988 whole entry)

[5] = target: T1, Amylin receptor AMY3; CALCR/RAMP3; test: Agonist activity at human amylin receptor expressed in BHK570 cells co-expressing RAMP3 assessed as increase in intracellular cAMP concentration incubated for 3 hrs in presence of 10% FBS by CRE luciferase reporter gene assay; assay type: functional, cell-based
[6] = target: T2, Calcitonin receptor; test: Agonist activity at human calcitonin receptor expressed in BHK570 cells assessed as increase in intracellular cAMP concentration incubated for 3 hrs in presence of 10% FBS by CRE luciferase reporter gene assay; assay type: functional, cell-based
[7] = Solubility in 100 mM glycylglycine buffer at pH 3.0 incubated for 18 hrs by UPLC analysis; assay type: physicochemical
[8] = Solubility in 100 mM glycylglycine buffer at pH 4.0 incubated for 18 hrs by UPLC analysis; assay type: physicochemical
[9] = Solubility in 100 mM bistrispropane buffer at pH 6.0 incubated for 18 hrs by UPLC analysis; assay type: physicochemical
[10] = Solubility in 100 mM glycylglycine buffer at pH 5.0 incubated for 18 hrs by UPLC analysis; assay type: physicochemical
[11] = Solubility in 100 mM bistrispropane buffer at pH 6.5 incubated for 18 hrs by UPLC analysis; assay type: physicochemical
[12] = Solubility in 100 mM bistrispropane buffer at pH 7.0 incubated for 18 hrs by UPLC analysis; assay type: physicochemical
[13] = Solubility in 100 mM bistrispropane buffer at pH 7.5 incubated for 18 hrs by UPLC analysis; assay type: physicochemical
[14] = Solubility in 100 mM bistrispropane buffer at pH 8.0 incubated for 18 hrs by UPLC analysis; assay type: physicochemical
[15] = target: T1, Amylin receptor AMY3; CALCR/RAMP3; test: Displacement of [125I]-labeled rat amylin from human amylin receptor expressed in BHK tkts13 whole cells co-expressing RAMP3 incubated for 60 mins by scintillation proximity assay; assay type: cell-based
[16] = target: T2, Calcitonin receptor; test: Displacement of [125I]-labeled human calcitonin from human calcitonin receptor expressed in BHK tkts13 whole cells incubated for 60 mins by scintillation proximity assay; assay type: cell-based
[17] = Stability in pH 7.5 buffer assessed as lag time for fibril formation at 1 uM by Thioflavin T based fluorescence assay; assay type: physicochemical; conditions: pH 7.5, 1 µM
[18] = Stability in pH 7.5 buffer assessed as compound recovery at 1 uM by Thioflavin T based fluorescence assay; assay type: physicochemical; conditions: read-out: Drug recovery
[19] = target: T2, Calcitonin receptor; test: Displacement of [125I]-labeled human calcitonin from human calcitonin receptor expressed in BHK tkts13 cell membranes incubated for 1 hr by scintillation proximity assay
[20] = target: T3, Amylin receptor AMY3; CALCR/RAMP3 (Rattus norvegicus, UniProt P32214+Q9JJ73); test: Displacement of [125I]-labeled rat amylin from rat amylin receptor expressed in BHK tkts13 cell membranes co-expressing RAMP3 incubated for 120 mins by scintillation proximity assay
T3 sequence (P32214 whole entry): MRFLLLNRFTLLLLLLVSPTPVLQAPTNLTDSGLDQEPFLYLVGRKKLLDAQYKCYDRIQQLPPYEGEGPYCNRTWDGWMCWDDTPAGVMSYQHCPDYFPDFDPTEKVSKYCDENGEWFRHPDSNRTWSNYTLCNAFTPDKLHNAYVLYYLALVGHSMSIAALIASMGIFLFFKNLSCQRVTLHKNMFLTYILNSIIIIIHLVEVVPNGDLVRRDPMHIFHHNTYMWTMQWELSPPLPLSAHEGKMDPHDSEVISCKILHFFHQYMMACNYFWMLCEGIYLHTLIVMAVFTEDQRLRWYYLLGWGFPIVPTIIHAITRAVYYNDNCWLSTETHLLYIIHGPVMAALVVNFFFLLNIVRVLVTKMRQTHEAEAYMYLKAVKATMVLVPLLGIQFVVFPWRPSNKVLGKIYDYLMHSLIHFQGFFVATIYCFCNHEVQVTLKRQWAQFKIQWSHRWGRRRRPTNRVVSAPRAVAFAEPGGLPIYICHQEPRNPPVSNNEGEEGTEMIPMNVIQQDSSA
T3 sequence (Q9JJ73 whole entry): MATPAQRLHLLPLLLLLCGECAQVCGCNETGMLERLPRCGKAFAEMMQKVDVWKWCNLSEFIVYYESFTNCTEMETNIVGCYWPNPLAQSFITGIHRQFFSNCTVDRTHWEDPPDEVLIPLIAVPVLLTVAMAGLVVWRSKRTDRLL

| EC50 [3] [nM] | EC50 [4] [nM] | EC50 [5] [nM] | EC50 [6] [nM] | solubility at 18 h [7] [µM] | solubility at 18 h [8] [µM] | solubility at 18 h [9] [µM] | solubility at 18 h [10] [µM] | solubility at 18 h [11] [µM] | solubility at 18 h [12] [µM] | solubility at 18 h [13] [µM] | solubility at 18 h [14] [µM] | IC50 [15] [nM] | IC50 [16] [nM] | Time [17] [h] | remaining at 1 µM [18] [%] | IC50 [19] [nM] | IC50 [20] [nM] | Compound | Activity [1] [%] | Activity [2] [%] |
| --- | --- | --- | --- | --- | --- | --- | --- | --- | --- | --- | --- | --- | --- | --- | --- | --- | --- | --- | --- | --- |
| 0.027 | 0.018 | 0.185 | 0.022 | ≥ 200 | ≥ 200 | ≥ 200 | ≥ 200 | ≥ 200 | ≥ 200 | ≥ 200 | ≥ 200 | 0.608 | 0.442 | – | – | – | – | CC(C)C[C@H](NC(=O)[C@H](C)NC(=O)[C@H](C)NC(=O)[C@@H](NC(=O)[C@H](CO)NC(=O)[C@H](CC(C)C)NC(=O)[C@H](CCC(=O)O)NC(=O)[C@H](CO)NC(=O)[C@H](C)NC(=O)CC[C@H](NC(=O)CCCCCCCCCCCCCCCCCCC(=O)O)C(=O)O)[C@@H](C)O)C(=O)NCC(=O)N[C@@H](CCCNC(=N)N)C(=O)N[C@@H](CC(C)C)C(=O)N[C@@H](CO)C(=O)N[C@@H](C)C(=O)N[C@@H](CCC(=O)O)C(=O)N[C@@H](CC(C)C)C(=O)N[C@@H](Cc1cnc[nH]1)C(=O)N[C@@H](CCC(=O)O)C(=O)N[C@@H](CC(C)C)C(=O)N[C@@H](C)C(=O)N[C@H](C(=O)N[C@@H](CC(C)C)C(=O)N1CCC[C@H]1C(=O)N[C@@H](Cc1cnc[nH]1)C(=O)N[C@H](C(=O)N[C@@H](CCC(=O)O)C(=O)N[C@H](C(=O)NCC(=O)N[C@@H](CO)C(=O)NCC(=O)N[C@@H](CO)C(=O)N1CCC[C@H]1C(N)=O)[C@@H](C)O)[C@@H](C)O)[C@@H](C)O ({C20 diacid-γGlu}-ASELSTAALGRLSAELHELATLPHTETGSGSP-NH2) | 55 | 62 |
| – | 0.023 | 0.067 | – | ≥ 200 | ≥ 200 | ≥ 200 | ≥ 200 | ≥ 200 | ≥ 200 | ≥ 200 | ≥ 200 | 2.61 | 2.94 | > 45 | 100 | 0.07 | 3.99 | CC(C)C[C@H](NC(=O)[C@H](C)NC(=O)[C@H](C)NC(=O)[C@@H](NC(=O)[C@H](CO)NC(=O)[C@H](CC(C)C)NC(=O)[C@H](CCC(=O)O)NC(=O)[C@H](CO)NC(=O)[C@H](C)NC(=O)CC[C@H](NC(=O)CCCCCCCCCCCCCCCCCCC(=O)O)C(=O)O)[C@@H](C)O)C(=O)NCC(=O)N[C@@H](CCCNC(=N)N)C(=O)N[C@@H](CC(C)C)C(=O)N[C@@H](CO)C(=O)N[C@@H](C)C(=O)N[C@@H](CCC(=O)O)C(=O)N[C@@H](CC(C)C)C(=O)N[C@@H](Cc1cnc[nH]1)C(=O)N[C@@H](CCC(=O)O)C(=O)N[C@@H](CC(C)C)C(=O)N[C@@H](C)C(=O)N[C@H](C(=O)N[C@@H](Cc1ccc(O)cc1)C(=O)N1CCC[C@H]1C(=O)N[C@@H](CCCNC(=N)N)C(=O)N[C@H](C(=O)N[C@@H](CCC(=O)O)C(=O)N[C@H](C(=O)NCC(=O)N[C@@H](CO)C(=O)NCC(=O)N[C@@H](CO)C(=O)N1CCC[C@H]1C(N)=O)[C@@H](C)O)[C@@H](C)O)[C@@H](C)O ({C20 diacid-γGlu}-ASELSTAALGRLSAELHELATYPRTETGSGSP-NH2) | 45 | 67 |
